# Assay results: patent publication USRE50301E1, “Depot systems comprising glatiramer or pharmacologically acceptable salt thereof” (MAPI PHARMA LTD., priority 2010, dated 2025)
# Test system: MOG-induced chronic EAE in C57BL/6 mice
# Type: in vivo
# From the text: The effect of the two formulations on MOG (myelin-oligodendrocyte-glycoprotein)-induced chronic EAE in C57BL/6 mice was examined according to the procedure described below.
# Forty (40) female C57BL/6 mice had been randomly grouped into three (3) groups by body weight in this study; each group consisted of ten (10) mice. […] EAE had been induced by injection of emulsion of MOG subcutaneously on the shaved back of the mouse at three sites, followed by an intraperitoneal injection of Bordetella pertussis toxin in PBS on Day 0 and 48 hours post MOG immunization. EAE had been assessed by clinical scoring of the mice once daily from Day 0 to Day 14 post immunization. […] On Day 14, mice had been terminated.
# After anesthetization by isoflurane (2-3%, inhalation), EAE had been induced by injecting 100 μL emulsion subcutaneously into the shaved backs of the mice. Bordetella pertussis toxin (200 ng in 200 μL of PBS) had been administered i.p. on the day of immunization (Day 0) and 48 hours thereafter. […]
# Body weight of all mice had been recorded daily starting from Day 0 to Day 14. EAE development had been assessed by clinically scoring of the mice once daily from Day 0 to Day 14 post immunization according to a scale of 0-5 (0=normal mouse; 1=limp tail or hind limb weakness; 2=limp tail and hind limb weakness; 3=partial hind limb paralysis; 4=complete hind limb paralysis; and 5=moribund state). […]
substance,measurement,setting,value
"L-glutamic acid polymer with L-alanine, L-lysine and L-tyrosine, acetate (salt) [GA]",Maximum score,"clinical score scale 0-5, days 0-14, 5 mg GA/mice/day i.m. on day 0 and day 1",0.5 ± 0.31
same,Disease duration,"days 0-14, 5 mg GA/mice/day i.m. on day 0 and day 1",0.5 ± 0.31
